# Laboratory results from US12297192B2, “Crystal form of pyrimidine sulfonamide compound and preparation method therefor” (WUXI BIOCITY BIOPHARMACEUTICS CO., LTD., priority 2019, dated 2025).
# Values joined by “and” are separate entries in the source; they are usually repeats but may differ in a detail not shown here. Equal entries are not always repeated. Where a SMILES comes first, the peptide text is derived from it. [ ]: non-standard residue; d: D form.
# Key:
# [1] = target: T1, human ETA receptors (Homo sapiens, UniProt P25101); experiment: In vitro antagonistic effect on human ETA receptors (Ca2+ fluorescence, SK-N-MC cells); format: cell-based; conditions: SK-N-MC cells, 1 nM endothelin-1
# T1 construct: endogenously expressed human ETA receptors in SK-N-MC cells; host or cells: SK-N-MC cells
# T1 sequence (P25101 21-427): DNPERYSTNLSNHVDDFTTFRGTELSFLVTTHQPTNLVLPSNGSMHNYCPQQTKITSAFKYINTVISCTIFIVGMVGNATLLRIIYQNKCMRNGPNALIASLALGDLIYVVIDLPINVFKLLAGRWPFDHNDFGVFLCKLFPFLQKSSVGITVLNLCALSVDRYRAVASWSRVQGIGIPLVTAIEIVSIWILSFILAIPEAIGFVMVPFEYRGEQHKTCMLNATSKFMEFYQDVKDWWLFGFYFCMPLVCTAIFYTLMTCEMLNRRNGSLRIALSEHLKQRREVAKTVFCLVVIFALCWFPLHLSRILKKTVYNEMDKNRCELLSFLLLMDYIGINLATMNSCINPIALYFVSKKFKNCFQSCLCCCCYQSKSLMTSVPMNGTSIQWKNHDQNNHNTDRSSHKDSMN
# Description: The antagonistic activity of the compounds on endogenously expressed human ETA receptors in SK-N-MC cells was assessed by measuring the effects of the compounds on changes in cytoplasmic Ca^2+ ion signaling induced by an agonist of human ETA receptor using a fluorescence assay. The functional activity of the ETA receptor antagonistic effect was tested at Eurofins-Cerep SA according to current standard operating procedures.
# • 1. Cells were suspended in Dulbecco's modified Eagle medium solution (DMEM, Invitrogen) supplemented with 1% FCSd and then distributed at a density of 5×10^4 cells/well in 384 plates (100 μL/well). • 2. Hank's Balanced Salt Solution (HBSS, Invitrogen) supplemented with 20 mM 4-(2-hydroxyethyl) piperazine-1-ethanesulfonic acid (Hepes, Invitrogen) (pH 7.4) was mixed with the fluorescent probe (Fluo4 NW, Invitrogen) and added to each well. Equilibrated with the cells for 60 minutes at 37° C. and then for 15 min at 22° C. • 3. The assay plate was placed in a microplate reader (CellLux, PerkinElmer). DMSO solution of the test compound and the positive control in appropriate concentration or HBSS buffer was added. After 5 minutes, 1 nM endothelin-1 or HBSS buffer (basal control) was added. Then the change in fluorescence intensity was measured. The fluorescence intensity is in proportion to the Ca^2+ ion concentration of the free cytosol. • 4. […] The standard positive control was BQ-123 and several concentrations were tested in each experiment and the data was analyzed using Prism to produce a concentration-response curve to calculate the IC50 values of the compounds. • 6.
# [2] = target: T2, human ETB receptors (Homo sapiens, UniProt P24530); experiment: In vitro antagonistic effect on human ETB receptors (Ca2+ fluorescence, transfected CHO cells); format: cell-based; conditions: 0.3 nM endothelin-1
# T2 construct: host or cells: CHO cells
# T2 sequence (P24530 27-442): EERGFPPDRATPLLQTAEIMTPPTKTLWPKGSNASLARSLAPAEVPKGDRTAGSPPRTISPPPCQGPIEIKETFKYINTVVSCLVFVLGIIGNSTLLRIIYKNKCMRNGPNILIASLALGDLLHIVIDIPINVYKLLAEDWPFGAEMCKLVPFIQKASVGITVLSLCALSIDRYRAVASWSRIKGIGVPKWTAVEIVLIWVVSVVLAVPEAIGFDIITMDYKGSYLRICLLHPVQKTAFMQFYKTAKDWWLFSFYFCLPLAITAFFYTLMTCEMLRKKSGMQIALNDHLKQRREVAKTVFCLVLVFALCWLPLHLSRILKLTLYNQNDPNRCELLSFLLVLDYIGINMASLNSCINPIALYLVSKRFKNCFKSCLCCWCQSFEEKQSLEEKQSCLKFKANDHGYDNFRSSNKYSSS
# Description: The antagonist activities of the compounds on human ETB receptors expressed in transfected CHO cells were assessed by measuring the effects of the compounds on changes in cytoplasmic Ca^2+ ion signaling induced by an agonist of human ETB receptor using a fluorescence assay. The functional activity of the ETB receptor antagonistic effect was tested at Eurofins-Cerep SA according to current standard operating procedures.
# • 1. Cells were suspended in DMEM buffer (Invitrogen) and then distributed at a density of 3×10^4 cells/well in 384 plates (100 μL/well). • 2. HBSS buffer (Invitrogen) supplemented with 20 mM Hepes (Invitrogen) (pH 7.4) was mixed with the fluorescent probe (Fluo4 Direct, Invitrogen) and added to each well. Equilibrated with the cells for 60 minutes at 37° C. and then for 15 minutes at 22° C. • 3. The assay plate was placed in a microplate reader (CellLux, PerkinElmer). DMSO solution of the test compound and the positive control or HBSS buffer in appropriate concentration was added. […] Then the change in fluorescence intensity was measured. The fluorescence intensity is in proportion to the Ca^2+ ion concentration of the free cytosol. • 4. […] The standard positive control was BQ-788 and several concentrations were tested in each experiment and the data was analyzed using Prism to produce a concentration-response curve to calculate the IC50 values of the compounds. […]
IC50 [1],IC50 [2],Structure (SMILES)
0.61 nM and 0.48 nM,,"CC(C)C[C@@H]1NC(=O)[C@@H](C(C)C)NC(=O)[C@@H]2CCCN2C(=O)[C@@H](CC(=O)O)NC(=O)[C@@H](Cc2c[nH]c3ccccc23)NC1=O [BQ-123, reference compound] (cyclo(L[dW][dD]P[dV]))"
,130 nM and 91 nM,CCCC[C@@H](NC(=O)[C@@H](Cc1cn(C(=O)OC)c2ccccc12)NC(=O)[C@H](CC(C)(C)C)NC(=O)N1[C@H](C)CCC[C@@H]1C)C(=O)O [BQ-788]
